According to the NIST ThermoML archive (doi:10.1021/je034066w):
± gives the expanded uncertainty stated by the source.

Conditions: Liquid

Critical pressure (Direct measurement): 4755 ± 48 kPa
Critical temperature (Visual observation in a stirred cell): 508.15 ± 0.12 K
Compound: CC(C)O [propan-2-ol]
